Assay [1] deals with C. crescentus CB15N. Nature of the assay: MIC of bacterial growth, macrodilution (Table 2). The format is cell-based, Caulobacter crescentus. The note with it: Caulobacter vibrioides, actively growing cells, read-out: MIC. The protocol: Bacterial strains and growth conditions. Luria-Bertani (LB) media (10 g/L tryptone, 10 g/L NaCl, 5 g/L yeast extract, pH 7.2) was used to grow B. subtilis 168, S. aureus FRI100, and P. aeruginosa K1115 strains. For P. aeruginosa PAO1 and K1119 strains and two E. coli BW25113 strains, M8 minimal media (241 mg/L MgSO4, 4 mg/L glucose, 5 mg/L casamino acids, 12.8 g/L Na2HPO4.7H2O, 3 g/L KH2PO4, and 0.5 g/L NaCl) was used. PYE media (2 g/L peptone, 1 g/L yeast extract, 0.8 mM MgSO4, and 0.5 mM CaCl2) was used for culturing C. crescentus cells at 30° C. All cultures were grown at 37° C., except for C. crescentus (30° C.). All cultures were grown while shaking at 200 rpm.
Determination of the minimum inhibitory concentration (MIC) of bacterial growth. The MIC of various organisms in liquid media was determined using the macrodilution method according to the NCCLS guidelines. For the starting inoculum, cultures were diluted to contain approximately 5×10^5 cells/mL in growth media. To create a two-fold dilution series for the macrodilution technique, each compound was added to the first culture tube (4 mL total volume) at the highest concentration. 2 mL of this culture was diluted into an equal volume of inoculated media (a two-fold dilution). The final volume for each culture was 2 mL.

Assay [2] concerns S. aureus FRI 100. The experiment in a line: Minimum biofilm eradication concentration (MBEC). The format is cell-based, Staphylococcus aureus. The note with it: S. aureus FRI 100 biofilm. As for the experimental part:
(§1) Determination of the minimum biofilm inhibitory concentration of growth (bMIC) and biofilm eradication concentration (MBEC). Overnight cultures of C. crescentus and S. aureus were grown and diluted 100-fold into appropriate nutrient media. Aliquots of the diluted suspension were transferred into wells of 96-well plates (150 μL/well). 2-fold serial dilutions were performed for compound-containing wells. For every experiment, three replicates for each compound concentration tested were included. After transferring aliquots of the suspension, the plates were closed with specialized lids that have protruding pins (Nunc STP System), and the plates were sealed using Parafilm®. The plates were incubated in a static incubator at 30° C. (C. crescentus) or 37° C. (S. aureus) for 24 hours. After the cells had formed biofilms on the surface of the pins, the pins were rinsed by dipping them in M2 (C. crescentus) or PBS (S. aureus) solutions. To rinse the pins, clean, sterile 96-well plates were used (aliquots of 200 μL/well); each rinse lasted 10 sec. After washing away planktonic cells loosely bound to biofilms, the pins were inserted into a 96-well plate that was pre-aliquoted with nutrient media containing antibiotics (2-fold dilutions, a final volume of 150 μL/well). The plates were sealed with Parafilm®, and incubated for 17 hours, and the bMIC was measured at the end of the incubation by visual inspection. After the bMIC run, the rinse steps were repeated to remove planktonic cells, and the pins were inserted into a 96-well plate that was pre-aliquoted with drug-free nutrient media (aliquots of 150 μL/well). The plates were sealed with Parafilm®, incubated for 24 hours, and the MBEC was measured at the end of the incubation by visual inspection.
After performing bMIC experiments, biofilms growing on the pins of the lid were transferred to nutrient media devoid of antibiotics to measure the minimum concentration of antibiotic that prevented planktonic growth from biofilms in antibiotic-free nutrient media (MBEC). […]

Assay [3] relates to C. crescentus CB15N. Nature of the assay: Minimum biofilm eradication concentration (MBEC). It counts as cell-based, Caulobacter crescentus. As for the experimental part: as §1
After performing bMIC experiments, biofilms growing on the pins of the lid were transferred to nutrient media devoid of antibiotics to measure the minimum concentration of antibiotic that prevented planktonic growth from biofilms in antibiotic-free nutrient media (MBEC). MBEC indicates whether the exposure to antimicrobial agent used during the bMIC experiment sterilized biofilm-associated cells. […] CCCP was the only effective antibiotic against S. aureus biofilms. Since CCCP was not as effective as DCAP at killing stationary cells, it was hypothesized that this variability in efficacy of membrane-active drugs is in part caused by changes in membrane composition (i.e., membrane proteins and lipid content) at different developmental stages of bacterial cells. […]

Assay [4] deals with C. crescentus CB15N. The experiment in a line: Minimum stationary-bactericidal concentration (MSC). It counts as cell-based, Caulobacter crescentus. The note with it: for MSC: C. crescentus CB15N, stationary cells, 24 hours. The protocol: (§2) Determination of the Minimum Stationary-Bactericidal Concentration.
(§3) Cultures of C. crescentus (24 hour incubation) and S. aureus cells (5 day incubation) were grown from single colonies. Cells were collected by centrifugation (8500 rpm for 2.5 minutes) and re-suspended in M2 salt solution (for C. crescentus; 1.74 g/L Na2HPO4, 1.06 g/L KH2PO4, and 0.5 g/L NH4Cl) or phosphate-buffered saline (for S. aureus; PBS, Fisher Scientific). The centrifugation and re-suspension was repeated two more times. After the repeated washing steps, the cell suspension was diluted 10-fold to achieve approximately 10^8 cells/mL. Aliquots of the diluted cell suspension were transferred into wells of a 96-well plate (100 μL/well), and 2-fold serial dilutions were performed to test a range of antibiotic concentrations. The plate was sealed with Parafilm® and incubated for 24 hours at room temperature in the dark. After incubation, 50 μl was removed from each well to spread on nutrient agar plates (1.5% agar in PYE for C. crescentus, and LB for S. aureus). The colonies on each plate were counted after growing the cells for 1-2 days. For determining the kinetics of bactericidal activity of DCAP on stationary cultures, the washed cells were diluted by 100-fold in appropriate solutions and tested using a single concentration of the compound while including a DMSO control sample. Cell suspensions were kept in closed microcentrifuge tubes instead of the wells of 96-well plates. 100 μL of the suspensions was removed for plating at each time point. All MSC experiments were performed in static conditions.
(§4) In addition to its activity against actively growing bacteria, DCAP kills cells in stationary phase (Table 3). This property was tested against C. crescentus and S. aureus. […] To ensure that bacteria were deprived of nutrients, the cells were grown into late stationary phase (i.e., 24 hours for C. crescentus and 5 days for S. aureus). These cells were collected, suspended in isotonic solutions devoid of amino acids or sugars, and treated with a small molecule (DMSO, DCAP, CCCP or ampicillin). Cell viability was measured over time by plating culture aliquots on non-selective, solid growth media. The minimum concentration of antibiotic required to completely eliminate colony formation was designated as the minimum stationary-bactericidal concentration (MSC). […] CCCP inhibited the proliferation of C. crescentus cells regardless of their physiological status. However, the MSC of CCCP for S. aureus was >300-fold higher than the MIC. This dramatic decrease in the effectiveness of CCCP in S. aureus may be due to changes in membrane composition as cells adjust their metabolism in nutrient-deprived conditions.

Assay [5] relates to S. aureus FRI 100. The description is as above. The format is cell-based, Staphylococcus aureus. The note with it: for MSC: S. aureus FRI 100, stationary cells, 24 hours. As for the experimental part: as §2, §3, §4

By MIC is commonly meant the smallest concentration in the dilution series that meets the test's criterion for growth inhibition.

SMILES strings stand for the structures. Where only a bound is given, the exact number is not on record here.

Regarding `OCC(CO)(CO)NCC(O)Cn1c2ccc(Cl)cc2c2cc(Cl)ccc21` (stereo not shown) [DCAP, 2-((3-(3,6-dichloro-9H-carbazol-9-yl)-2-hydroxypropyl)amino)-2-(hydroxymethyl)propane-1,3-diol], the MIC in assay [1] worked out at 15 µM. The MBEC in assay [2] was above 200 µM; in assay [3], 40 µM. In addition, the “Minimum time required to obtain the MSC” value in assay [4] (C. crescentus) amounted to 2 h; in assay [5] (S. aureus, data not shown) it was 6 h. In addition, the MSC was determined as 20 µM in assay [4] and 75 µM in assay [5].

As to `N#CC(C#N)=NNc1cccc(Cl)c1` [CCCP, carbonyl cyanide m-chlorophenyl hydrazone], in assay [1], the MIC came to 5 µM. The MBEC was 80 µM in assay [2] and 5 µM in assay [3]. Moreover, the figures for the MSC in assay [4] and in assay [5] were 2.5 µM and above 400 µM, respectively. Moreover, the “MSC relative to MIC” value in assay [5] (S. aureus, stationary vs growing cells) is given as above 300 fold.

Values taken from US10314816B2, “Antimicrobial compounds, compositions and methods of use thereof” (Wisconsin Alumni Research Foundation, priority 2012, dated 2019).
